Entries after “also recorded” stand apart in the source; their conditions may differ.
Tests used:
[1] = test system: HeLa cells (cervix adenocarcinoma); experiment: MTT cytotoxicity assay, HeLa; format: cell-based, human; conditions: for IC50: Homo sapiens, HeLa, MTT, 48 h incubation, triplicate, average ± SD; for Selectivity Index (SI) HeLa: ratio of IC50 WI-26VA4 and IC50 HeLa
Procedure: (§1) The cytotoxicity of the compounds was assessed with the human cell lines, HeLa (cervix adenocarcinoma ATCC# CCl-2), RKO-AS-45-1 (colon carcinoma ATCC# CRL-2579) and WI-26 VA4 (fibroblast ATCC# CCL-95.1) using the MTT (3-(4,5-dimethylthiazol-2-yl)-2,5-diphenyltetrazolium bromide) (Sigma, St. Louis, MO, USA) colorimetric method. Briefly, the cells were plated in 96-well plates (1 × 10^5 cells/well) and incubated for 24 h at 37 °C in a humidified atmosphere with 5% CO2. After 24 h, the wells were washed with culture medium (RPMI +10% inactivated fetal calf serum + 2 mM L-glutamine) and incubated with the compounds at various concentrations (0.05 to 500 μM). After 48 h of incubation, the plates were treated with MTT. The colorimetric measurement was performed at 550 nm using the microplate reader, Spectramax M5e (Molecular Devices, Sunnyvale, CA, USA). Cytotoxicity was scored as the percent reduction in absorbance versus untreated control cultures. All experiments were performed in triplicate. The results are expressed as the mean of the IC50 (the lethal drug concentration that reduced cell viability by 50%). The IC50 values were calculated using OriginPro 8.0 (OriginLab Corporation, Northampton, MA, USA) software. A selectivity index (SI), corresponding to the ratio between the cytotoxic activities of each compound against the HeLa and RKO-AS-45-1 cell lines and the cytotoxicity against WI-26 VA4, was calculated as follows: […]

[2] = test system: RKO-AS-45-1 cells (colon carcinoma); experiment: MTT cytotoxicity assay, RKO-AS-45-1; format: cell-based, human; conditions: for IC50: Homo sapiens, RKOAS451, MTT, 48 h incubation, triplicate, average ± SD; for Selectivity Index (SI) RKO AS-45-1: ratio of IC50 WI-26VA4 and IC50 RKO-AS-45-1
Procedure: as §1

[3] = test system: WI-26VA4 cells (lung fibroblast, non-cancerous); experiment: MTT cytotoxicity assay, WI-26VA4; format: cell-based; conditions: Homo sapiens, WI26VA4, 48 h incubation, triplicate, average ± SD
Procedure: The cytotoxicity of the compounds was assessed with the human cell lines, HeLa (cervix adenocarcinoma ATCC# CCl-2), RKO-AS-45-1 (colon carcinoma ATCC# CRL-2579) and WI-26 VA4 (fibroblast ATCC# CCL-95.1) using the MTT (3-(4,5-dimethylthiazol-2-yl)-2,5-diphenyltetrazolium bromide) (Sigma, St. Louis, MO, USA) colorimetric method. Briefly, the cells were plated in 96-well plates (1 × 10^5 cells/well) and incubated for 24 h at 37 °C in a humidified atmosphere with 5% CO2. After 24 h, the wells were washed with culture medium (RPMI +10% inactivated fetal calf serum + 2 mM L-glutamine) and incubated with the compounds at various concentrations (0.05 to 500 μM). After 48 h of incubation, the plates were treated with MTT. The colorimetric measurement was performed at 550 nm using the microplate reader, Spectramax M5e (Molecular Devices, Sunnyvale, CA, USA). Cytotoxicity was scored as the percent reduction in absorbance versus untreated control cultures. All experiments were performed in triplicate. […] The IC50 values were calculated using OriginPro 8.0 (OriginLab Corporation, Northampton, MA, USA) software. A selectivity index (SI), corresponding to the ratio between the cytotoxic activities of each compound against the HeLa and RKO-AS-45-1 cell lines and the cytotoxicity against WI-26 VA4, was calculated as follows: SI = […].

RKO-AS-45-1 cells [4] = experiment: TUNEL apoptosis assay, RKO-AS-45-1; format: cell-based, human; conditions: 48 h; 4c at 5.1 μM, 5c at 19.1 μM
Procedure: (§2) Apoptotic cell death was measured using the APO-BrdU TUNEL assay kit (Invitrogen, Carlsbad, CA, USA). Briefly, the effect of Compounds 4c and 5c and etoposide on DNA fragmentation was determined using Hela and RKO-AS-45-1 cells. The cells were incubated with the compounds for 48 h, as described above, and fixed using a solution of ice-cold 70% ethanol. The cells were then counterstained with 5-bromo-2′-deoxyuridine 5′-triphosphate (BrdUTP) in the presence of terminal deoxynucleotidyl transferase (TdT) and stained with an anti-BrdU monoclonal antibody-PRB-1 Alexa Fluor 488 conjugate, as previously described. The loaded cells were visualized by fluorescence microscopy using a Zeiss Axiovert 200 (Carl Zeiss, Oberkochen, Germany).

HeLa cells = experiment: TUNEL apoptosis assay, HeLa; format: cell-based, human; conditions: 48 h; 4c at 19.1 μM, 5c at 8.5 μM
Procedure: as §2

RKO-AS-45-1 cells [5] = experiment: Frequency of binucleation (mitotic index); format: cell-based, human; conditions: 300 cells counted
Procedure: The influence of the synthetic alkaloids on cell division was assessed by calculating the frequency of binucleation in RKO-AS-45-1 cells. The same slides prepared for the micronucleus assay were used, and 300 cells with a well-preserved cytoplasm were counted using fluorescence microscopy, as described above. The frequency of binucleated cells was calculated as the proportion (percentage) of cells undergoing complete cell division after exposure to digoxin and controls.

RKO-AS-45-1 cells [6] = experiment: Cytokinesis-block micronucleus assay; format: cell-based, human; conditions: 3 h treatment
Procedure: To assess the potential of the synthetic alkaloids to induce DNA damage (chromosomal mutations) in vitro, the cytokinesis-block micronucleus assay was performed in the RKO-AS-45-1 cell line. The procedures were developed as described by Fenech, with adaptations. Briefly, the cells were seeded in 24-well plates (2.5 × 10^5 cells/well) and maintained at 37 °C in a humid atmosphere with 5% CO2. After 24 h, the cells were washed twice with PBS, and the treatments were performed in culture media without serum for three hours. Each treatment was performed in triplicate. The negative control group was treated with PBS, and a positive control group was established with the treatment of the cells with methyl methanesulfonate (MMS—400 μM).
After completing treatments with three concentrations lower than the IC50 of Compounds 4c (4.8, 9.6 and 14.3 μM) and 5c (5.9, 11.8, and 17.8 μM) diluted in culture media, the cells were washed twice with PBS, trypsinized and centrifuged for 5 min at 1200 rpm. The pellet was then resuspended in chilled hypotonic solution (1% sodium citrate) together with one drop of 1% formaldehyde and carefully homogenized with a Pasteur pipette. This cell suspension was centrifuged for 5 min at 1200 rpm and resuspended in 5 mL of fixative, methanol/acetic acid (3:1 v/v). Next, the tubes were centrifuged for 5 min, and the supernatant was discarded; the cell suspension was spread onto slides previously cleaned and covered with a film of chilled distilled water.
At the moment of cytogenetic analysis, the slides were stained with DAPI (4′,6-diamidino-2-phenylindole) diluted in phosphate buffer (0.06 M Na2HPO4 and 0.06 M KH2PO4, pH 6.8) for 2 min, washed with distilled water and analyzed under a fluorescent microscope (Zeiss, Axioscope) with an excitation filter of 365 nm and a barrier filter of 445/450 nm. Two thousands cells with a well-preserved cytoplasm were analyzed for each treatment in a blind test. Cells containing 1–3 micronuclei were scored. The criterion for the identification of MNs was according to a previous report. […]

[7] = test system: actin cytoskeleton of RKO-AS-45-1 cells; experiment: Actin polymerization by fluorescence microscopy; format: cell-based, human; conditions: 19.1 μM, 24 h, phalloidin Alexa Fluor 488
Procedure: The control with non-treated cells was included in parallel. After 24 h, the cells were rinsed in phosphate-buffered saline (PBS) for 3 min, fixed in paraformaldehyde (#15,812-7, Sigma) at 4% in PBS for 1 h and permeabilized with 0.1% Triton X-100 (#17-1315-01, Plusone, GE Healthcare, Fairfield, CA, USA) in PBS for 10 min. The RKO-AS-45-1 cells were labeled with Phalloidin Alexa Fluor® 488 (#A12379, Molecular Probes, Eugene, OR, USA), and the nuclei were counterstained with 4,6-diaminidino-2-phenylindole (DAPI; Molecular Probes, #D1306) according to the manufacturer’s instructions. Image acquisition was performed using an AxioVert 200 microscope (Carl Zeiss, Oberkochen, Germany).

SMILES	IC50 [1] [µM]	IC50 [2] [µM]	Selectivity Index (SI) HeLa [1]	Selectivity Index (SI) RKO AS-45-1 [2]	also measured
c1cncc(CCCOCCCCCCOC2CCCCO2)c1 (stereo not shown) [Compound 4a, 1-[3-(pyridin-3-yl)propoxy]-6-(oxan-2-yloxy)hexane]	> 300	> 300	–	–	–
c1cncc(CCCOCCCCCCCCOC2CCCCO2)c1 (stereo not shown) [Compound 4b, 1-[3-(pyridin-3-yl)propoxy]-8-(oxan-2-yloxy)octane]	8.1 ± 2.7	23.7 ± 1.7	4.66	1.59	–
c1cncc(CCCOCCCCCCCCCCCCOC2CCCCO2)c1 (stereo not shown) [Compound 4d, 1-[3-(pyridin-3-yl)propoxy]-12-(oxan-2-yloxy)dodecane]	9.4 ± 0.7	3.2 ± 1.7	1.20	3.53	–
OCCCCCCCCOCCCc1cccnc1 [Compound 5b, 8-[3-(pyridin-3-yl)propoxy]octan-1-ol]	192 ± 10.1	> 300	0.87	–	IC50 [3]: 167 ± 10.5 µM
OCCCCCCOCCCc1cccnc1 [Compound 5a, 6-[3-(pyridin-3-yl)propoxy]hexan-1-ol]	> 400	> 400	–	–	–
c1cncc(CCCOCCCCCCCCCCOC2CCCCO2)c1 (stereo not shown) [Compound 4c, 1-[3-(pyridin-3-yl)propoxy]-10-(oxan-2-yloxy)decane]	4 ± 0.8	5.1 ± 1.1	1.60	1.25	Apoptosis induction (TUNEL) (RKO-AS-45-1 cells [4]): promoted apoptosis; Apoptosis induction (TUNEL) (HeLa cells): promoted apoptosis; Frequency of binucleation vs negative control (RKO-AS-45-1 cells [5]; two highest concentrations assessed): reduced the binucleation frequency; Micronucleus frequency vs control (RKO-AS-45-1 cells [6]; 2.5 and 4.0 μM (two highest concentrations), 2000 binucleated cells, p < 0.05): significantly higher than that detected in the control; also recorded: statistically higher than that identified in the control group; Micronucleus frequency vs control (RKO-AS-45-1 cells [6]; lower concentrations evaluated): did not induce significant alterations in the MN frequency
OCCCCCCCCCCOCCCc1cccnc1 [Compound 5c, 10-[3-(pyridin-3-yl)propoxy]decan-1-ol]	8.5 ± 2.4	19.1 ± 4.4	11.65	5.18	Apoptosis induction (TUNEL) (RKO-AS-45-1 cells [4]): promoted apoptosis; Effect on actin cytoskeleton / actin polymerization [7]: actin polymerization is altered; also recorded: accentuated alteration of the cellular actin network; Apoptosis induction (TUNEL) (HeLa cells): promoted apoptosis; Frequency of binucleation / proliferation rate vs control (RKO-AS-45-1 cells [5]; highest concentration assessed, p < 0.05): reduced the proliferation rate; also recorded: induced a reduction in the proliferation rate; Micronucleus frequency vs control (RKO-AS-45-1 cells [6]; 17.8 μM (highest concentration), 2000 binucleated cells, p < 0.05): significantly higher than that found in the control; also recorded: statistically higher than that identified in the control group
COc1cc([C@@H]2c3cc4c(cc3[C@@H](O[C@@H]3O[C@@H]5CO[C@@H](C)O[C@H]5[C@H](O)[C@H]3O)[C@H]3COC(=O)[C@H]23)OCO4)cc(OC)c1O [Etoposide, reference compound]	2.7 ± 0.4	1.4 ± 0.6	–	–	–
OCCCCCCCCCCCCOCCCc1cccnc1 [Compound 5d, 12-[3-(pyridin-3-yl)propoxy]dodecan-1-ol]	8.8 ± 1.9	132 ± 16.8	3.87	0.25	–

— publication PMC4145321, “Synthesis and Biological Evaluation of Novel 3-Alkylpyridine Marine Alkaloid Analogs with Promising Anticancer Activity” (Marine Drugs, 2014)
